{"source": "patent US5668116A", "about": "“Anti-inflammatory compounds and compositions” (Anthropharm Pty. Limited, priority 1987, dated 1997)", "key": {"[1]": {"test_system": "human synovial fibroblasts (line derived from OA joints)", "assay": "In vitro biosynthesis of hyaluronic acid by synovial fibroblasts", "format": "cell-based", "settings": "for in vitro biosynthesis of hyaluronic acid (HA): FIG. 1, 2, 17"}, "[2]": {"test_system": "mature rabbit articular cartilage", "settings": "8 week intra-articular treatment"}, "[3]": {"target": "T1, human granulocyte elastase (HGE) (Homo sapiens, UniProt P08246)", "T1 construct": "HGE prepared according to the method of Andrews et al; from tissue", "T1 sequence (P08246 30-247 limits assumed)": "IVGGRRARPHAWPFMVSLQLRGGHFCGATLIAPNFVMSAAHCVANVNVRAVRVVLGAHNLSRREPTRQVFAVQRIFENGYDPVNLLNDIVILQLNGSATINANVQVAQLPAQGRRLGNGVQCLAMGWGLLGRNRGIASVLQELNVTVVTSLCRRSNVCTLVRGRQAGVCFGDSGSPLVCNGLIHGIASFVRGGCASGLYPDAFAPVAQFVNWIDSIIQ", "assay": "Inhibition of human granulocyte elastase (HGE), SAAVNA substrate", "format": "biochemical", "from_the_text": "(a) HGE prepared according to the method of Andrews et al (Chem. Biological Int. 47, 157, 1983) was used to degrade\nthe synthetic specific substrate for this enzyme-(succinyl-dialanyl-valyl nitroanalide (SAAVNA)).\nIn these experiments the inhibitory activity of DH40J, PPS as SP54® and mixtures of SP54® and ZnSO4 in various proportions against HGE using the same condition as in (a), except that a different enzyme preparation was used, were investigated. […] A variety of ratios of Zn^+ to SP54® were tested for their ability to inhibit the HGE."}, "[4]": {"test_system": "articular cartilages implanted in rat air pouches", "assay": "Rat air pouch model, loss of proteoglycans from implanted articular cartilage", "format": "in vivo", "settings": "10 mg/kg/day into the air pouch for seven days, peptone inflammation; FIG. 12", "description": "This model was originally described by Sin, M. Y., et al J. Path. 141, 23 (1984) and Sedgwick A. D. et al Ann. Rheum. Dis. 43, 418 (1984) and provides a convenient and reproducable method of evaluating the effects of drugs on cartilage metabolism in vivo. This model was used to investigate the influence of SP54® and DH40J when administered into the rat air pouch at 10 mg/kg on the loss of cartilage proteoglycans (PGs) induced by an inflammatory cell invasion of the pouch.\nAir pouches were created on the dorsal surface of male 200 gm Wistar rats by the initial injection of 20 ml of sterile air. Re-injection every second day maintained cavity inflation. Articular cartilage (AC) aseptically harvested from the knee joints of 10 week old New Zealand White rabbits, was implanted into formed 7 day old rat air pouches. Drugs (10 mg/kg), diluted in saline, were administered daily into the air pouch beginning the day of cartilage implantation. Saline was administered to a control group. Inflammation of the air pouch was achieved by the injection of 10 ml of sterile 3% peptone into the pouch every second day, beginning the day of cartilage implantation. […] Cells in the APF were stained with crystal violet and a total cell count determined. […] Implanted AC (8-10 mgs) was digested by papain and PG content was determined by hexuronic acid and sulphated glycosaminoglycan (GAG) analysis. […]"}, "[5]": {"settings": "in vitro; Arch. Int. Pharmacodyn. Ther. 282, 196-208 (1986); cited from earlier work"}, "[6]": {"settings": "Table 7, different enzyme preparation, single inhibitor"}}, "note": "“And” between values parts separate entries of the source, which are not always exact repeats. Equal values may be shown once."}
{"compound": "C[C@]12CCC(=O)C=C1CC[C@@H]1[C@@H]2[C@@H](O)C[C@@]2(C)[C@H]1CC[C@]2(O)C(=O)CO", "note": "[Cortisone, hydrocortisone]", "values": [{"measurement": "in vitro biosynthesis of hyaluronic acid (HA)", "setting": "[1]", "result": "progressively inhibited"}, {"measurement": "4M Gu HCl,PG Extractability", "setting": "[2]; individual joints", "result": "53.2% and 57.6% and 56.8% and 51.5%"}, {"measurement": "35S-PG Specific (activity)", "setting": "[2]; individual joints", "result": "896.8 DPM/ug UA and 866.6 DPM/ug UA and 1061.4 DPM/ug UA and 854.2 DPM/ug UA"}, {"measurement": "Hexuronic Acid(UA)", "setting": "[2]; individual joints, hydrocortisone 50 mg, pentosan polysulphate 5 mg", "result": "27.4 ug/mg dry wt. and 23.2 ug/mg dry wt. and 20.0 ug/mg dry wt. and 21.8 ug/mg dry wt."}, {"measurement": "4M Gu HCl,PG Extractability Mean ± SD", "setting": "[2]; n = 4 joints", "result": "54.7 ± 2.9", "unit": "%"}, {"measurement": "35S-PG Specific (activity) Mean ± SD", "setting": "[2]; n = 4 joints", "result": "919.7 ± 96.1", "unit": "DPM/ug UA"}, {"measurement": "Hexuronic Acid(UA) Mean ± SD", "setting": "[2]; n = 4 joints", "result": "23.1 ± 3.1", "unit": "ug/mg dry wt."}]}
{"compound": "O=S(=O)([O-])[O-].[Zn+2]", "note": "[ZnSO4, zinc sulphate]", "values": [{"measurement": "IC50 (HGE inhibition)", "setting": "[3]; [6]", "result": 10, "unit": "µg/mL"}]}
{"compound": "pentosan polysulphate sodium salt [SP54]", "values": [{"measurement": "IC50 (HGE inhibition)", "setting": "[3]; Table 6, 1 μg HGE/ml, 0.2 mM SAAVNA, pH 7.4, 37° C.", "result": 0.249, "unit": "µg/mL"}, {"measurement": "IC50 (HGE inhibition)", "setting": "[3]; [6]", "result": 0.381, "unit": "µg/mL"}, {"measurement": "% DIFFERENCE from SP54 (IC50, HGE)", "setting": "[3]; Table 7, single inhibitor", "result": 0, "unit": "%"}, {"measurement": "loss of proteoglycans (uronic acid) from implanted articular cartilage", "setting": "[4]", "result": "equally effective in preventing the loss of proteoglycans"}, {"measurement": "in vitro biosynthesis of hyaluronic acid (HA)", "setting": "[1]", "result": "stimulates the biosynthesis of hyaluronic acid (HA)"}, {"measurement": "restoration of HA biosynthesis suppressed by hydrocortisone", "setting": "[1]; hydrocortisone at 10^6 M (so in the source), drug at 0.25 ug/ml, FIG. 19, 21", "result": "almost, but not totally, restored to control value"}, {"measurement": "restoration of HA biosynthesis suppressed by hydrocortisone", "setting": "[1]; hydrocortisone at 10^8 M (so in the source), drug 0.1-1.0 ug/ml, FIG. 20", "result": "fully restored synthesis to control values"}, {"measurement": "prevention of the effects of hydrocortisone on synovial fibroblast biosynthesis of HA", "setting": "[1]; in vitro", "result": "could prevent the deleterious effects of hydrocortisone"}, {"measurement": "improving proteoglycan incorporation into the extracellular matrix", "setting": "[5]", "result": "active in vitro in improving proteoglycan incorporation into the extracellular matrix"}]}
